# Experimental data reported in patent publication US20220162167A1, “SUBSTITUTED BICYCLIC AND TETRACYCLIC QUINONES AND USE THEREOF AS ANTI-CANCER AGENTS” (THE REGENTS OF THE UNIVERSITY OF MICHIGAN, priority 2019, published 2022).
# Tests used:
# Format in all cases: cell-based
# A549/ATCC = assay: NCI60 growth inhibition, A549/ATCC; details: Non-Small Cell Lung Cancer
# Method: (§1) Representative compounds were tested in 60 cell lines (NCI60) at the National Cancer Institute, Developmental Therapeutics Program.
# (§2) Representative compounds were tested in a panel of 60 cancer cells (NCI 60) at the National Cancer Institute. Growth inhibition are shown in table 2, table 3, table 4, table 5, and FIG. 1, FIG. 2, FIG. 3, FIG. 4, FIG. 5.
# SK-MEL-2 = assay: NCI60 growth inhibition, SK-MEL-2; details: Melanoma; note: test concentration or dose not given here
# Method: as §1, §2
# CCRF-CEM = assay: NCI60 growth inhibition, CCRF-CEM; details: Leukemia
# Method: as §1, §2
# UO-31 = assay: NCI60 growth inhibition, UO-31; details: Renal Cancer
# Method: as §1, §2
# SF-539 = assay: NCI60 growth inhibition, SF-539; details: CNS Cancer
# Method: as §1, §2
# MALME-3M = assay: NCI60 growth inhibition, MALME-3M; details: Melanoma
# Method: as §1, §2
# HCC-2998 = assay: NCI60 growth inhibition, HCC-2998; details: Colon Cancer
# Method: as §1, §2
# U251 = assay: NCI60 growth inhibition, U251; details: CNS Cancer
# Method: as §1, §2
# OVCAR-3 = assay: NCI60 growth inhibition, OVCAR-3; details: Ovarian Cancer
# Method: as §1, §2
# MCF7 = assay: NCI60 growth inhibition, MCF7; details: Breast Cancer
# Method: as §1, §2
# EKVX = assay: NCI60 growth inhibition, EKVX; details: Non-Small Cell Lung Cancer
# Method: as §1, §2
# RPMI-8226 = assay: NCI60 growth inhibition, RPMI-8226; details: Leukemia
# Method: as §1, §2
# BT-549 = assay: NCI60 growth inhibition, BT-549; details: Breast Cancer
# Method: as §1, §2
# NCI-H226 = assay: NCI60 growth inhibition, NCI-H226; details: Non-Small Cell Lung Cancer; note: test concentration or dose not given here
# Method: as §1, §2
# A498 = assay: NCI60 growth inhibition, A498; details: Renal Cancer; note: test concentration or dose not given here
# Method: as §1, §2
# M14 = assay: NCI60 growth inhibition, M14; details: Melanoma
# Method: as §1, §2
# HS 578T = assay: NCI60 growth inhibition, HS 578T; details: Breast Cancer
# Method: as §1, §2
# 786-0 = assay: NCI60 growth inhibition, 786-0; details: Renal Cancer
# Method: as §1, §2
# HL-60(TB) = assay: NCI60 growth inhibition, HL-60(TB); details: Leukemia
# Method: as §1, §2
# LOX IMVI = assay: NCI60 growth inhibition, LOX IMVI; details: Melanoma
# Method: as §1, §2
# UACC-257 = assay: NCI60 growth inhibition, UACC-257; details: Melanoma; note: test concentration or dose not given here
# Method: as §1, §2
# SK-MEL-5 = assay: NCI60 growth inhibition, SK-MEL-5; details: Melanoma
# Method: as §1, §2
# SF-268 = assay: NCI60 growth inhibition, SF-268; details: CNS Cancer; note: test concentration or dose not given here
# Method: as §1, §2
# K-562 = assay: NCI60 growth inhibition, K-562; details: Leukemia
# Method: as §1, §2
# UACC-62 = assay: NCI60 growth inhibition, UACC-62; details: Melanoma; note: test concentration or dose not given here
# Method: as §1, §2
# SK-OV-3 = assay: NCI60 growth inhibition, SK-OV-3; details: Ovarian Cancer
# Method: as §1, §2
# MOLT-4 = assay: NCI60 growth inhibition, MOLT-4; details: Leukemia
# Method: as §1, §2
# IGROV1 = assay: NCI60 growth inhibition, IGROV1; details: Ovarian Cancer
# Method: as §1, §2
# HOP-92 = assay: NCI60 growth inhibition, HOP-92; details: Non-Small Cell Lung Cancer
# Method: as §1, §2
compound,measurement,setting,value
"O=C1c2cccnc2C(=O)c2nc3cc(N4CCN(C5CC5)CC4)ccc3nc21 [Compound 49, 9-(4-cyclopropylpiperazin-1-yl)pyrido[2,3-b]phenazine-5,12-dione]",Growth inhibition (% control) GIPRCNT,A549/ATCC,−53.27 % control
same,Growth inhibition (% control) GIPRCNT,SK-MEL-2,−16.262 % control
same,Growth inhibition (% control) GIPRCNT,CCRF-CEM,26.17 % control
same,Growth inhibition (% control) GIPRCNT,UO-31,−99.9594 % control
same,Growth inhibition (% control) GIPRCNT,SF-539,−99.37 % control
same,Growth inhibition (% control) GIPRCNT,MALME-3M,−100 % control
same,Growth inhibition (% control) GIPRCNT,HCC-2998,−80.83 % control
same,Growth inhibition (% control) GIPRCNT,U251,−32.64 % control
same,Growth inhibition (% control) GIPRCNT,OVCAR-3,−1.5625 % control
same,Growth inhibition (% control) GIPRCNT,MCF7,−56.1231 % control
same,Growth inhibition (% control) GIPRCNT,EKVX,27.37 % control
same,Growth inhibition (% control) GIPRCNT,RPMI-8226,25.33 % control
same,Growth inhibition (% control) GIPRCNT,BT-549,−93.6913 % control
same,Growth inhibition (% control) GIPRCNT,NCI-H226,−49.1 % control
same,Growth inhibition (% control) GIPRCNT,A498,−88.1317 % control
same,Growth inhibition (% control) GIPRCNT,M14,−91.1652 % control
same,Growth inhibition (% control) GIPRCNT,HS 578T,−36.5499 % control
same,Growth inhibition (% control) GIPRCNT,786-0,28.12 % control
same,Growth inhibition (% control) GIPRCNT,HL-60(TB),−43.09 % control
same,Growth inhibition (% control) GIPRCNT,LOX IMVI,−46.5487 % control
same,Growth inhibition (% control) GIPRCNT,UACC-257,−84.4508 % control
same,Growth inhibition (% control) GIPRCNT,SK-MEL-5,−98.1218 % control
same,Growth inhibition (% control) GIPRCNT,SF-268,12.46 % control
same,Growth inhibition (% control) GIPRCNT,K-562,0.8659 % control
same,Growth inhibition (% control) GIPRCNT,UACC-62,−98.5184 % control
same,Growth inhibition (% control) GIPRCNT,SK-OV-3,−78.6244 % control
same,Growth inhibition (% control) GIPRCNT,MOLT-4,26.2 % control
same,Growth inhibition (% control) GIPRCNT,IGROV1,−13.7639 % control
same,Growth inhibition (% control) GIPRCNT,HOP-92,62.46 % control
